Data on three compounds can be found in US11408038B2, “N-cadherin and FGFR1 and/or FGFR4 for use in predicting the response of patients to a lung cancer treatment and method and kit based on said use” (FUNDACIÓN DE INVESTIGACIÓN HOSPITAL 12 DE OCTUBRE, priority 2017, dated 2022).

Assay [1] concerns H520 cell line. Briefly: Cell proliferation (growth curve) with FGFR inhibitors, H520. Particulars: H520, endogenous FGFR1, FGFR4 and high N-cadherin; 0.5 μM or 1 μM. In kind it is cell-based. As to the method:
(§1) 3,500 cells were seeded per well in 12-well plates. At 24 hours (day 0) the cells of the first point of the curve were fixed, and every 24-48 hours a new point of the curve was fixed and the medium of the rest was changed. The fixed plates were preserved with the cells in PBS at 4° C. until all the points of the curve were fixed. The plates were then stained with crystal violet for 20 minutes, washed and allowed to dry. Once dry, 20% acetic acid was added to each well to dilute the crystal violet, and the absorbance at 595 nm was measured on a VICTOR optical reading device (PerkinElmer). All absorbances were standardised in relation to the absorbance of day 0 of each experimental condition. Finally, this standardised value (growth relative to day 0 on the Y-axis) was plotted against time (days, X-axis).
(§2) To verify whether N-cadherin expression is decisive in the determination of the efficacy of FGFR inhibition in lung cancer treatment, the efficacy of two selective FGFR inhibitors, in terms of growth inhibition, was tested. For this purpose, cell lines with high endogenous expression of FGFR1 and/or FGFR4 and low expression of N-cadherin (A549 and H460), or with high endogenous expression of FGFR1 and/or FGFR4 and high expression of N-cadherin (H520 and H226) were selected. […]

Assay [2] has as its system A549 cell line. Briefly: Cell proliferation (growth curve) with FGFR inhibitors, A549. The assay is classed as cell-based. Particulars: A549, endogenous FGFR1 and FGFR4, low N-cadherin; 0.5 μM or 1 μM. As to the method:
as §1, §2

For assay [3], the system named is H460 cell line. Briefly: Cell proliferation (growth curve) with FGFR inhibitors, H460. The settings on record: H460, endogenous FGFR1, low N-cadherin; 0.5 μM or 1 μM. The assay is classed as cell-based. As to the method: as §1, §2
Assay [4] concerns H226 cell line. Briefly: Cell proliferation (growth curve) with FGFR inhibitors, H226. Particulars: H226, endogenous FGFR1 and high N-cadherin; 0.5 μM or 1 μM. In kind it is cell-based. The protocol: as §1, §2
The subject of assay [5] is mesenchymal bladder cancer cell lines. Particulars: cited from earlier work.
For assay [6], the system named is FGFR-related signalling pathways (pSTAT3, pAKT, p-p42/p44). Kind of assay: Western blot of FGFR-related signalling pathways in treated PDX TP91. Particulars: TP91 tumours, high N-cadherin. The assay is classed as in vivo, mice. As to the method:
(§3) The total proteins of the tumours from xenografts were obtained by adding the lysis buffer to the previously pulverized tissue fragment in a mortar pre-cooled with liquid nitrogen, to avoid thawing the fragment; it was then incubated on ice for 2 hours, stirring every 10 minutes, and the volume was collected in 2 mL tubes that were centrifuged at 15,000×g for 10 minutes at 4° C. to eliminate the remnants of undissolved tissue, and the supernatant was stored at −80° C. The extraction buffer and the quantification method used were the same as in the case of protein extraction from cell lines.
Protein immunodetection was performed according to a standard protocol on PDVF membranes (GE Healthcare). The proteins were separated on SDS polyacrylamide gels using a 1X Tris HCl 0.13 M electrophoresis buffer, 0.95 M glycine, 0.5% SDS, and were transferred to PDVF membranes, using a Trans-Blot Turbo kit (BioRad). The transfer was performed at 400 mA for 3 hours in transfer buffer (0.025 M TrisHCl, 0.2 M glycine, 20% methanol). The membranes were blocked for 1 hour under stirring with the blocking buffer (TBS, 0.1% Tween20 and 1% BSA). Subsequently, the membranes were incubated with the appropriate dilution of primary antibody for 16 hours at 4° C. After this incubation, the membranes were washed with washing buffer (TBS 0.1% Tween-20) and incubated with a 1:5,000 dilution of the appropriate peroxidase-conjugated secondary antibody, for one hour at ambient temperature. The detection was performed using a chemiluminescent reaction (Clarity ECL, Biorad) and visualization using luminescence detection equipment (ChemiDoc, BioRad).
The route of administration of the drug was oral.
(Immunoblotting shows a protein as a band on a membrane.)

The test system of assay [7] is TP60 adenocarcinoma PDX (low N-cadherin). Kind of assay: PDX treatment, tumour growth, model TP60. In kind it is in vivo, mice. Particulars: 7.5 mg/kg/day oral, Monday to Friday. As to the method: (§4) Tumours from patients with non-small cell lung cancer, covered with Matrigel (BD #356234) are implanted in the flank of immunocompromised nude mice of 5-6 weeks of age, under anaesthesia by isofluorane inhalation and under analgesia by buprenorphine. To perform the implant, a small cut is made in the flank of the mouse under anaesthesia and analgesia and the tumour fragment is inserted, about 100-150 mm^3 in volume.
(§5) The size of the tumours generated by the xenografts was measured weekly with a measuring gauge. The shortest and longest length of each tumour was measured and the tumour volume was calculated with the formula: 0.5×(longest dimension)×(shortest dimension)^2.
(§6) For this purpose, the model of interest was implanted in 4-6 mice per treatment group as stated above, and the growth of the tumours generated was monitored. […]
(§7) The growth of the tumours is shown in graphs of tumour growth against time, where each measurement of tumour volume is relativised with the initial measurement after commencing the treatment, and the median and mean error are shown for each treatment group. The variation in tumour volume is represented with bar graphs which show the increase (or decrease), expressed as a percentage, of the volume of each tumour with regard to the initial volume in each treatment group

Assay [8] has as its system FGFR-related signalling pathways. Briefly: Western blot of FGFR-related signalling pathways in treated PDX TP60. The assay is classed as in vivo, mice. The settings on record: TP60 tumours, low N-cadherin. As to the method: as §3
Protein immunodetection was performed according to a standard protocol on PDVF membranes (GE Healthcare). The proteins were separated on SDS polyacrylamide gels using a 1X Tris HCl 0.13 M electrophoresis buffer, 0.95 M glycine, 0.5% SDS, and were transferred to PDVF membranes, using a Trans-Blot Turbo kit (BioRad). The transfer was performed at 400 mA for 3 hours in transfer buffer (0.025 M TrisHCl, 0.2 M glycine, 20% methanol). The membranes were blocked for 1 hour under stirring with the blocking buffer (TBS, 0.1% Tween20 and 1% BSA). […] The detection was performed using a chemiluminescent reaction (Clarity ECL, Biorad) and visualization using luminescence detection equipment (ChemiDoc, BioRad). […]

Assay [9] deals with TP91 adenocarcinoma PDX (high N-cadherin). Briefly: PDX treatment, tumour growth, model TP91. In kind it is in vivo, mice. The settings on record: 7.5 mg/kg/day oral. As to the method: as §4, §5, §6, §7
The subject of assay [10] is lung cancer cell lines. Kind of assay: In vitro experiments with the two FGFR inhibitors, growth inhibition overall. In kind it is cell-based. Particulars: BGJ398 versus AZD4547. The protocol:
To verify whether N-cadherin expression is decisive in the determination of the efficacy of FGFR inhibition in lung cancer treatment, the efficacy of two selective FGFR inhibitors, in terms of growth inhibition, was tested. For this purpose, cell lines with high endogenous expression of FGFR1 and/or FGFR4 and low expression of N-cadherin (A549 and H460), or with high endogenous expression of FGFR1 and/or FGFR4 and high expression of N-cadherin (H520 and H226) were selected. In these lines, an analysis was performed on the effect on cell proliferation of two selective FGFR inhibitors: BGJ398 and AZD4547 (SELLECKCHEM, Refs. S2183 and S2801 respectively) with regard to time.

The test system of assay [11] is TP13 epidermoid carcinoma PDX (low N-cadherin). Kind of assay: PDX treatment, tumour growth, model TP13. The settings on record: 7.5 mg/kg/day oral, Monday to Friday. The assay is classed as in vivo, mice. The protocol:
as §4, §5, §6, §7

For assay [12], the system named is TP96 epidermoid carcinoma PDX (high FGFR1, FGFR4 and N-cadherin). As to the method:
as §4, §5
For this purpose, the model of interest was implanted in 4-6 mice per treatment group as stated above, and the growth of the tumours generated was monitored. […] Once the groups were established, the treatments were commenced, lasting between 3 and 5 weeks, depending on the growth rate of each model and on the drug or drugs employed.
The concentration of AZD4547 employed was 7.5 mg/kg/day, administered from Monday to Friday. The route of administration of the drug was oral. At the end of the treatment, the mice were sacrificed and the tumours processed and stored as stated above.
as §7

Assay [13] concerns TP114 epidermoid carcinoma PDX (high N-cadherin). Kind of assay: PDX treatment, tumour growth, model TP114. The settings on record: 7.5 mg/kg/day oral. The assay is classed as in vivo, mice. The protocol: as §4, §5, §6, §7

As to `CCN1CCN(c2ccc(Nc3cc(N(C)C(=O)Nc4c(Cl)c(OC)cc(OC)c4Cl)ncn3)cc2)CC1` [BGJ398], the “effect on cell growth (relative growth with regard to time)” value is reported as “reduce the growth” in assay [1], “do not exert a significant effect” in assay [2], “do not exert a significant effect” in [3] and “reduce the growth” in assay [4].
In the case of `CN1CCN(c2ccc3nc(-c4c(N)c5c(F)cccc5[nH]c4=O)[nH]c3c2)CC1` [TI-258], the “responsiveness of mesenchymal versus epithelial bladder cancer cell lines” value in [5] was “more responsive”.
For AZD4547, in assay [6], the “levels of pAKT” value is “reduction”. For the same compound, the “levels of pSTAT3” value in assay [6] was “reduction”. Also, the p-p42/p44 activation result in assay [6] is “modest reduction”. Further, the “effect on tumour growth” value in [7] and in assay [11] was “no effect” in each case. The “activation of the FGFR-related signalling pathways studied” value in [8] was “does not alter the activation”. Also, the “effect on cell growth (relative growth with regard to time)” value is given as “reduce the growth” in [1], “do not exert a significant effect” in assay [2], “do not exert a significant effect” in [3] and “reduce the growth” in assay [4]. For the same compound, the “average reduction in volume with regard to the control condition” value is given as 14.4% in [9] (TP91, high N-cadherin, Monday to Friday); 1.4% in assay [12] (TP96, high FGFR1, FGFR4 and N-cadherin, 7.5 mg/kg/day oral, Monday to Friday); 25.5% in [13] (TP114, high N-cadherin, Monday to Friday). Besides, the “complete tumour regression, fraction of the tumours treated” value in [9] (TP91) is reported as “⅕”; in assay [12] (TP96, 7.5 mg/kg/day oral), “⅖”; in [13] (TP114) it was “⅖”. Besides, the “efficacy in the in vitro experiments, compared between the two inhibitors” value in assay [10] was “greatest efficacy”. For the same compound, the “response to the treatment” value in assay [12] (TP96, partial response = average reduction in tumour volume of 50% or greater vs volume at commencement of treatment) was “partial response”.
